These compounds were tested against T1, androgen receptor (Homo sapiens, UniProt P10275) (assay: Binding affinity to androgen receptor ([3H]methyltrienolone radioligand, cell cytosol)). Conditions: Table 6.
T1 construct: endogenous in cells; host or cells: unnamed cells (cytosol fraction)
T1 sequence (P10275 1-920): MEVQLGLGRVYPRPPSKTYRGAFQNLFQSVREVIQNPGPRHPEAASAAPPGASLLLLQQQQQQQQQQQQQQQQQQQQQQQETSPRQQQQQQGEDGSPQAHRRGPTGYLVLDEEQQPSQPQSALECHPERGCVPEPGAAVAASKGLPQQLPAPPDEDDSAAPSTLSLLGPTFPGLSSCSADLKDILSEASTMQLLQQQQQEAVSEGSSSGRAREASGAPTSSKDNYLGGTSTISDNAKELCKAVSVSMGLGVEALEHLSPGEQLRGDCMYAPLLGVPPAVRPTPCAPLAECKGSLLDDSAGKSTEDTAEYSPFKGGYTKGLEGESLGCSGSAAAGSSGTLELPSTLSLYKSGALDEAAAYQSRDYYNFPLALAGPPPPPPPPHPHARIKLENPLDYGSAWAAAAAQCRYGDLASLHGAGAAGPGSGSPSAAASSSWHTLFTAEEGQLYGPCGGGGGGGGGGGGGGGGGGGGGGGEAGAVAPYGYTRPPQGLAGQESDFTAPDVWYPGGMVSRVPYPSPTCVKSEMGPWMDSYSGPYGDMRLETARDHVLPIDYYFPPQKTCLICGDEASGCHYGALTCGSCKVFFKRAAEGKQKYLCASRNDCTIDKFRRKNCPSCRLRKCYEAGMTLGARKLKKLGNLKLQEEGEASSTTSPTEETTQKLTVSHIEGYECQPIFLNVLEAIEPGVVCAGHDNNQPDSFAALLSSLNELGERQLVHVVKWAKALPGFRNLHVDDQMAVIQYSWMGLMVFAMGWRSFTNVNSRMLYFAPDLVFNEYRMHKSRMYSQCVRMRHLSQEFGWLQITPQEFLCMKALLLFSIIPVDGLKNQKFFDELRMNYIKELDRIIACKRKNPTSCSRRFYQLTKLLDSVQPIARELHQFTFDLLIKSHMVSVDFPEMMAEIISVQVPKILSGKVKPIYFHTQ
Protocol: Fractions of cell cytosol ([…]) were incubated for 24 hr at 4° C. with 1 nM [^3H]methyltrienolone in the absence or presence of the test compound in a buffer containing 25 mM Hepes-Tris (pH 7.4), 1 mM EDTA, 10 mM Na2MoO4, 2 mM DTT, 5 μM triamcinolone acetonide, and 10% glycerol. Nonspecific binding was determined in the presence of 1 μM testosterone. Following incubation, the samples were filtered rapidly under vacuum through glass fiber filters (GF/B, Packard) presoaked with 0.3% PEI and rinsed several times with ice-cold 50 mM Tris-HCl using a 96-sample cell harvester (Unifilter, Packard). The filters were dried then counted for radioactivity in a scintillation counter (Topcount, Packard) using a scintillation cocktail (Microscint 0, Packard). The results are expressed as a percent inhibition of the control radioligand specific binding. The standard reference compound is testosterone, which is tested in each experiment at several concentrations to obtain a competition curve from which its IC50 is calculated.

CCc1cnn2c(NCc3ccc(OCCN(C)c4ncc(C(=O)N[C@H]5C(C)(C)[C@H](Oc6ccc(C#N)c(Cl)c6)C5(C)C)cn4)nc3)cc(N3CCCC[C@H]3CCO)nc12 [Compound I-1] and CCc1cnn2c(NCc3ccc(OCCOC4CCN(c5ncc(C(=O)N[C@H]6C(C)(C)[C@H](Oc7ccc(C#N)c(Cl)c7)C6(C)C)cn5)CC4)nc3)cc(N3CCCC[C@H]3CCO)nc12 [Compound I-7, N-((1r,3r)-3-(3-chloro-4-cyanophenoxy)-2,2,4,4-tetramethylcyclobutyl)-2-(4-(2-((5-(((3-ethyl-5-((S)-2-(2-hydroxyethyl)piperidin-1-yl)pyrazolo[1,5-a]pyrimidin-7-yl)amino)methyl)pyridin-2-yl)oxy)ethoxy)piperidin-1-yl)pyrimidine-5-carboxamide] cannot be ordered by Kd: < 50 nM for the first, < 50 nM for the second.

CCc1cnn2c(NCc3ccc(=O)n(CCOCCOCCOCCOCCOCCOCCN(C)c4ncc(C(=O)N[C@H]5C(C)(C)[C@H](Oc6ccc(C#N)c(Cl)c6)C5(C)C)cn4)c3)cc(N3CCCC[C@H]3CCO)nc12 [Compound I-4, N-((1r,3r)-3-(3-chloro-4-cyanophenoxy)-2,2,4,4-tetramethylcyclobutyl)-2-((20-(5-(((3-ethyl-5-((S)-2-(2-hydroxyethyl)piperidin-1-yl)pyrazolo[1,5-a]pyrimidin-7-yl)amino)methyl)-2-oxopyridin-1(2H)-yl)-3,6,9,12,15,18-hexaoxaicosyl)(methyl)amino)pyrimidine-5-carboxamide] and CCc1cnn2c(NCc3ccc(OCCOCCOCCOCCOCCOCCOCCN(C)c4ncc(C(=O)N[C@H]5C(C)(C)[C@H](Oc6ccc(C#N)c(Cl)c6)C5(C)C)cn4)nc3)cc(N3CCCC[C@H]3CCO)nc12 [Compound I-5] cannot be ordered by Kd: < 50 nM for the first, < 50 nM for the second.

CCc1cnn2c(NCc3ccc(OCCOCCOCCOCCOCCOC4CCN(c5ncc(C(=O)N[C@H]6C(C)(C)[C@H](Oc7ccc(C#N)c(Cl)c7)C6(C)C)cn5)CC4)nc3)cc(N3CCCC[C@H]3CCO)nc12 [Compound I-9] and CCc1cnn2c(NCc3ccc(OCCCCOCCOC4CCN(c5ncc(C(=O)N[C@H]6C(C)(C)[C@H](Oc7ccc(C#N)c(Cl)c7)C6(C)C)cn5)CC4)nc3)cc(N3CCCC[C@H]3CCO)nc12 [Compound I-34] cannot be ordered by Kd: < 50 nM for the first, < 50 nM for the second.

CC1(C)[C@H](NC(=O)c2cnc(N3CCC(OCCNS(=O)(=O)c4ccc(Nc5ncc(Br)c(Nc6cccc(F)c6C(N)=O)n5)cc4)CC3)nc2)C(C)(C)[C@H]1Oc1ccc(C#N)c(Cl)c1 [Compound I-13, 2-(4-(2-((4-((5-bromo-4-((2-carbamoyl-3-fluorophenyl)amino)pyrimidin-2-yl)amino)phenyl)sulfonamido)ethoxy)piperidin-1-yl)-N-((1 r,3r)-3-(3-chloro-4-cyanophenoxy)-2,2,4,4-tetramethylcyclobutyl)pyrimidine-5-carboxamide] and CCc1cnn2c(NCc3ccc(OCCN4CCN(CC5CCN(c6ncc(C(=O)N[C@H]7C(C)(C)[C@H](Oc8ccc(C#N)c(Cl)c8)C7(C)C)cn6)CC5)CC4)nc3)cc(-c3ccccc3)nc12 [Compound I-47, N-((1r,3r)-3-(3-chloro-4-cyanophenoxy)-2,2,4,4-tetramethylcyclobutyl)-2-(4-((4-(2-((5-(((3-ethyl-5-phenylpyrazolo[1,5-a]pyrimidin-7-yl)amino)methyl)pyridin-2-yl)oxy)ethyl)piperazin-1-yl)methyl)piperidin-1-yl)pyrimidine-5-carboxamide] cannot be ordered by Kd: < 50 nM for the first, < 50 nM for the second.

CCc1cnn2c(NCc3ccc(OCCCCN4CCN(CC5CCN(c6ncc(C(=O)N[C@H]7C(C)(C)[C@H](Oc8ccc(C#N)c(Cl)c8)C7(C)C)cn6)CC5)CC4)nc3)cc(N3CCCC[C@H]3CCO)nc12 [Compound I-43] and CCc1cnn2c(NCc3ccc(OCCCN4CCN(CC5CCN(c6ccc(C(=O)N[C@H]7C(C)(C)[C@H](Oc8ccc(C#N)c(Cl)c8)C7(C)C)cn6)CC5)CC4)nc3)cc(N3CCCC[C@@H]3CCO)nc12 [Compound I-55, N-((1r,3r)-3-(3-chloro-4-cyanophenoxy)-2,2,4,4-tetramethylcyclobutyl)-6-(4-((4-(3-((5-(((3-ethyl-5-((R)-2-(2-hydroxyethyl)piperidin-1-yl)pyrazolo[1,5-a]pyrimidin-7-yl)amino)methyl)pyridin-2-yl)oxy)propyl)piperazin-1-yl)methyl)piperidin-1-yl)nicotinamide] cannot be ordered by Kd: < 50 nM for the first, < 50 nM for the second.

First: CCc1cnn2c(NCc3ccc(OCCOCCOCCOC4CCN(c5ccc(C(=O)N[C@H]6C(C)(C)[C@H](Oc7ccc(C#N)c(Cl)c7)C6(C)C)nn5)CC4)nc3)cc(N3CCCC[C@H]3CCO)nc12 [Compound I-44, N-((1r,3r)-3-(3-chloro-4-cyanophenoxy)-2,2,4,4-tetramethylcyclobutyl)-6-(4-(2-(2-(2-((5-(((3-ethyl-5-((S)-2-(2-hydroxyethyl)piperidin-1-yl)pyrazolo[1,5-a]pyrimidin-7-yl)amino)methyl)pyridin-2-yl)oxy)ethoxy)ethoxy)ethoxy)piperidin-1-yl)pyridazine-3-carboxamide]
Second: CCc1cnn2c(NCc3ccc(OCCOCC4CCN(CC5CCN(c6ncc(C(=O)N[C@H]7C(C)(C)[C@H](Oc8ccc(C#N)c(Cl)c8)C7(C)C)cn6)CC5)CC4)nc3)cc(N3CCCC[C@H]3CCO)nc12 [Compound I-45]
The Kd of the first is higher: 50 to 500 nM for the first, < 50 nM for the second.

CCc1cnn2c(NCc3ccc(OCCCN4CCN(C5CN(c6ncc(C(=O)N[C@H]7C(C)(C)[C@H](Oc8ccc(C#N)c(Cl)c8)C7(C)C)cn6)C5)CC4)nc3)cc(N3CCCC[C@H]3CCO)nc12 [Compound I-60] and CCc1cnn2c(NCc3ccc(OCCCN4CCC(C5CN(c6ncc(C(=O)N[C@H]7C(C)(C)[C@H](Oc8ccc(C#N)c(Cl)c8)C7(C)C)cn6)C5)CC4)nc3)cc(N3CCCC[C@H]3CCO)nc12 [Compound I-61] cannot be ordered by Kd: < 50 nM for the first, < 50 nM for the second.

CCc1cnn2c(NCc3ccc(N4CCC(CN5CCC6CN(c7ncc(C(=O)N[C@H]8C(C)(C)[C@H](Oc9ccc(C#N)c(Cl)c9)C8(C)C)cn7)CCC6C5)CC4)nc3)cc(N3CCCC[C@H]3CCO)nc12 (stereo partly drawn) [Compound I-71] and CCc1cnn2c(NCc3ccc(N4CC(OCCN5CC6CN(c7ncc(C(=O)N[C@H]8C(C)(C)[C@H](Oc9ccc(C#N)c(Cl)c9)C8(C)C)cn7)CC6C5)C4)nc3)cc(N3CCCC[C@H]3CCO)nc12 (stereo partly drawn) [Compound I-72] cannot be ordered by Kd: < 50 nM for the first, < 50 nM for the second.

For CCc1cnn2c(NCc3ccc(OCCCN4CCN(CC5CCN(c6ccc(C(=O)N[C@H]7C(C)(C)[C@H](Oc8ccc(C#N)c(Cl)c8)C7(C)C)cc6)CC5)CC4)nc3)cc(N3CCCC[C@@H]3CCO)nc12 [II-1, N-((1r,3r)-3-(3-chloro-4-cyanophenoxy)-2,2,4,4-tetramethylcyclobutyl)-4-(4-((4-(3-((5-(((3-ethyl-5-((R)-2-(2-hydroxyethyl)piperidin-1-yl)pyrazolo[1,5-a]pyrimidin-7-yl)amino)methyl)pyridin-2-yl)oxy)propyl)piperazin-1-yl)methyl)piperidin-1-yl)benzamide], the Kd was < 50 nM.

The compounds below were run against T2, CDK1 (Homo sapiens, UniProt P06493) (assay: KdELECT binding assay, CDK1). Conditions: CDK1, Table 9.
T2 construct: made in house; host or cells: E. coli BL21-derived host (T7 phage) or HEK-293 ('BEK-293' [sic])
T2 sequence (P06493 whole entry): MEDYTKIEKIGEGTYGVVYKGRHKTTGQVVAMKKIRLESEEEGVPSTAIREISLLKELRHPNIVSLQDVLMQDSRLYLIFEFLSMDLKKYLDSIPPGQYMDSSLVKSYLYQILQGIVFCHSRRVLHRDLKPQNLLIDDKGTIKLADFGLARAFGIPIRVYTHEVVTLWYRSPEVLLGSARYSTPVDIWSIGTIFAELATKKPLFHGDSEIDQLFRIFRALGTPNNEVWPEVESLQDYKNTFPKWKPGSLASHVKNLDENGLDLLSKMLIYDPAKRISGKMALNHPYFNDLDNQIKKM
Protocol: Compounds were tested using a KdELECT. Kinase-tagged T7 phage strains were prepared in an E. coli host derived from the BL21 strain. E. coli were grown to log-phase and infected with T7 phage and incubated with shaking at 32° C. until lysis. The lysates were centrifuged and filtered to remove cell debris. The remaining kinases were produced in BEK-293 cells and subsequently tagged with DNA for qPCR detection. Streptavidin-coated magnetic beads were treated with biotinylated small molecule ligands for 30 minutes at room temperature to generate affinity resins for kinase assays. The liganded beads were blocked with excess biotin and washed with blocking buffer (SeaBlock (Pierce), 1% BSA, 0.05% Tween 20, 1 mM DTT) to remove unbound ligand and to reduce non-specific binding. Binding reactions were assembled by combining kinases, liganded affinity beads, and test compounds in 1× binding buffer (20% SeaBlock, 0.17×PBS, 0.05% Tween 20, 6 mM DTT). Test compounds were prepared as 111× stocks in 100% DMSO. Kd values were determined using an 11-point 3-fold compound dilution series with three DMSO control points. All compounds for Kd measurements are distributed by acoustic transfer (non-contact dispensing) in 100% DMSO. The compounds were then diluted directly into the assays such that the final concentration of DMSO was 0.9%. All reactions performed in polypropylene 384-well plate. Each was a final volume of 0.02 mL. The assay plates were incubated at room temperature with shaking for 1 hour and the affinity beads were washed with wash buffer (lx PBS, 0.05% Tween 20). The beads were then re-suspended in elution buffer (lx PBS, 0.05% Tween 20, 0.5 μM nonbiotinylated affinity ligand) and incubated at room temperature with shaking for 30 minutes. The kinase concentration in the eluates was measured by qPCR.

With CCc1cnn2c(NCc3ccc(OCCN4CCN(CC5CCN(c6ncc(C(=O)N[C@H]7C(C)(C)[C@H](Oc8ccc(C#N)c(Cl)c8)C7(C)C)cn6)CC5)CC4)nc3)cc(N3CCCC[C@H]3CCO)nc12 [Compound I-41] the Kd was > 2500 nM.

— patent US20260159520A1, “HETEROBIFUNCTIONAL COMPOUNDS AND METHODS OF TREATING DISEASE” (Halda Therapeutics OpCo, Inc., priority 2022, published 2026)
